How the values were obtained:
[1] = system: Human neuroblastoma SH-SY5Y cell line; experiment: MTT assay of cell activity (mitochondria dehydrogenase activity); type: cell-based; details: for degree of suppression of the cell activity by concentration (MTT): SH-SY5Y cells, 1, 2 or 4 μM, 24 hrs, FIG. 4A
Protocol: To compare the physiological activity of the genetic recombinant amyloid-β peptide produced according to the present invention with that of the amyloid-β peptide produced by a chemical synthetic method, their mitochondrial activities in eykaryotic cells were examined as follows:
First, 0.45 mg of the amyloid-β peptide prepared in Example 3 was dissolved in 20 μl of dimethyl sulfoxide, and 980 μl of DMEM was added thereto, to prepare the amyloid-β peptide solution at a concentration of 100 μM, which was stored at 4[…] for 24 hrs and subjected to centrifugation to separate the supernatant from the precipitate. The supernatant was distributed to an eppendorf tube at a volume of 50 μl and stored at −80[…].
(§1) Human neuroblastoma SH-SY5Y cell line (ATCC CRL-2266) was suspended in DMEM containing 10% FBS, distributed to each well of a 96-well plate at a concentration of 7×10^3 cells/well, and then, cultured at 37 °C for 24 hrs. The genetic recombinant amyloid-β peptide solution prepared above was added to each well at a concentration of 1, 2 or 4 μM, and the well plate was incubated at 37 °C for 24 hrs. The cell activity was measured by means of MTT (3-(4,5-dimethylthiazol-2-yl)-2,5-diphenyltetrazolium bromide) assay which is capable of measuring the in vivo mitochondria dehydrogenase activity. MTT was added to each well at a concentration of 0.8 mg/ml, and the reactants in the well were allowed to react at 37 °C for 5 hrs to induce in vivo dehydrogenase reaction of mitochondria. Formazan crystals generated from such reaction were dissolved in dimethyl sulfoxide and its adsorbance was measured at 550 nm.
Also shown in FIG. [[4a]]4A are the results obtained using the recombinant ubiquitin (H6Ub: ●) control, the ubiquitin-amyloid-β peptide fusion protein (H6Ub-Aβ42: ▪) and the chemically synthesized amyloid-β peptide (Aβ42: □).

[2] = system: Human neuroblastoma SH-SY5Y cell line; experiment: level of apoptosis by trypan blue staining; type: cell-based; details: 5 μM, 36 hrs, FIG. 4C
Protocol: as §1
After the cells were treated with 5 μM of the amyloid-β peptide for 36 hrs, black cells stained with trypan blue were examined to determine the level of apoptosis induced.

[3] = listed as recombinant amyloid-β peptide

“rAβ42: genetic recombinant amyloid-β peptide (amyloid-beta42, SEQ ID NO: 19) cleaved from a ubiquitin fusion protein expressed in E. coli” was tested, and the “changes in the cell activity according to the treatment time (MTT)” value ([1]; SH-SY5Y cells, 5 μM, 12, 24 and 48 hrs, FIG. 4B) was “as the treatment time becomes longer, the cell activity becomes further reduced”, the “degree of suppression of the cell activity by concentration (MTT)” value [1] was “can suppress the cell activity just like the chemically synthesized amyloid-β peptide” and the “degree of suppression of the cell activity by concentration (MTT)” value [1, 3] was “can suppress the cell activity”. For the same substance, the “level of apoptosis induced (trypan blue staining)” value [2] was “showed an apoptotic activity, which was significantly higher than the recombinant ubiquitin (H6Ub) or ubiquitin-amyloid fusion protein (H6Ub-Aβ42), the activity being equal to, or slightly higher than, the chemically synthesized amyloid-β peptide (Aβ42)” and the “level of apoptosis induced (trypan blue staining)” value [2, 3] was “induce apoptosis to an extent which is equal to that achievable with chemically synthesized amyloid-β peptide”.

Source: patent US20060281901A1, “Method for the production of amyloid-beta peptide using ubiquitin” (priority 2005, published 2006)
